The values that follow come from paper PMC7365463, “Oxfendazole mediates macrofilaricidal efficacy against the filarial nematode Litomosoides sigmodontis in vivo and inhibits Onchocerca spec. motility in vitro” (PLoS Neglected Tropical Diseases, 2020).

Broadly, the AUC(0-t) is the area under the concentration-time curve up to a stated or last time point. The Cmax is the highest concentration seen after dosing. What is called Tmax is the time at which the peak concentration occurs.

One data set has as its system Brugia pahangi. Further details: method as in de Burbure 1986 (Ref. 9). The settings on record: 200L3 (SC), Mastomys, food 56-82mg/kg, 7 days p.i., necropsy 177 days p.t., ref de Burbure 1986 (Ref. 9), cited from earlier work.
The test system of the next data set is Brugia malayi. Further details: method as in Maeda 1988 (Ref. 14). The settings on record: 150-200L3 (SC), jird, IP 20mg/kg 5 cons. days, 9 months p.i., necropsy 5 weeks p.t.; ref Maeda 1988 (Ref. 14); cited from earlier work.
For data set [1], the system named is L. sigmodontis microfilariae. Put plainly: L. sigmodontis microfilariae-injected naïve mice. The class given is in vivo, Litomosoides sigmodontis. The settings on record: mice injected with 100,000 microfilariae, BID 2 x 12.5 mg/kg per os for 5 days. As to the method: To investigate the in vivo efficacy of oxfendazole on microfilariae, microfilariae were isolated from peripheral blood of L. sigmodontis-infected cotton rats according to Chandrashekar et al. (1984) using a sucrose percoll gradient. 100,000 microfilariae were injected into the tail vein of naïve mice as previously described. Microfilariae-injected mice were treated with a commercial formulation of oxfendazole (Dolthene) twice daily with 2 x 12.5 mg/kg per os. As a positive control, additional mice were treated with a single intraperitoneal dose of ivermectin (5 mg/kg) in DMSO/PEG400/H20dest with a ratio of 1:7:2 according to Halliday et al.. Control animals received no treatment.

The nature of data set [2]: Plasma pharmacokinetics in mice (oral and subcutaneous). The class given is in vivo, BALB/c mice. Conditions: for AUC(0-t) / Cmax / Tmax / half-life: female, BALB/c, mouse, plasma. As to the method: Female BALB/c mice (6 to 9-weeks old) were used to determine the plasma concentrations of oxfendazole. Animals were allocated to groups of three animals per dose, such that the mean weight of animals in each group was similar. All animals had access to a certified rodent diet (Beijing Keao […] Co, Ltd) and water ad libitum. In this study, all animals were fasted 12 h before dosing and returned to food 4 h post dose. Commercially available oxfendazole (Sigma Aldrich and Dolthene, Merial) was administered to animals. […] A commercially available formulation of oxfendazole, Dolthene, was diluted in corn oil and administered by oral gavage. After administration of the drug substances by oral gavage, blood samples were collected from each animal via the saphenous or mandibular veins at 0.25, 0.5, 1, 2, 4, 8, 12 and 24 h post dosing. For administration via the sc route, samples were collected from each animal 1, 3, 6, 9, 12, 18, 24, 36, 48, 72, 96, and 120 h post dosing. All samples were transferred into plastic tubes containing K2-EDTA (0.5 M) as an anti-coagulant and stored on ice until plasma preparation by centrifugation at 5°C (3000 g, 15 min). Analysis was conducted by LC-MS/MS (API 4000). Mobile phases were mixtures of acetonitrile (ACN) and water to which formic acid and 1 mM NH4OAc were added (0.025%, v/v). The ratio ACN/water was 5:95 (v/v) in the mobile phase A and 95:5 (v/v) in the mobile phase B. […] Electrospray positive ionization with selected ion MS/MS monitoring was used for the determination of oxfendazole: m/z 316.0/159.1.

Another data set deals with Onchocerca lupi. Also on record: method as in PMID 29377880. The settings on record: Onchocerca lupi-infected dogs; cited from earlier work.
[3] abbreviates: PO, nominal dose 5 mg/kg (administered 4.8).
Where [4] appears, read: PO, nominal dose 25 mg/kg (administered 26.3).
The mark [5] stands for this setting: SC, nominal dose 1 mg/kg (administered 1.0).
Setting [6] is: SC, nominal dose 25 mg/kg (administered 27.5).

Like-named read-outs stand apart in the source and are kept apart here.

For `COC(=O)Nc1nc2cc(C(=O)c3ccc(F)cc3)ccc2[nH]1` [flubendazole], the “Reduction of worm burden” value in the data set with Brugia pahangi (7 days ad.lib.), in the data set with Brugia pahangi (14 days ad. lib.) and in the data set with Brugia malayi was 100% each time.
Turning to `COC(=O)Nc1nc2ccc([S+]([O-])c3ccccc3)cc2[nH]1` (stereo not shown) [oxfendazole], the “direct microfilaricidal effect in vivo” value in data set [1] is “no direct microfilaricidal effect”. The “Cmax oral versus sc” value in data set [2] (25 mg/kg, higher in the oral treated group) was “about 6 times”. Also, the AUC(0-t) in data set [2] (setting [3]) was determined as 14700 ng·h/mL; in data set [2] (setting [4]) it was 50300 ng·h/mL; in data set [2] (setting [5]) it was 1280 ng·h/mL; in data set [2] (setting [6]), 20800 ng·h/mL. Moreover, the Cmax in data set [2] (setting [3]) was 2530 ng/mL; in data set [2] (setting [4]), 8590 ng/mL; in data set [2] (setting [5]), 131 ng/mL; in data set [2] (setting [6]) it was 1450 ng/mL; in data set [2] (oral administration of 5 mg/kg), 8 µM; in data set [2] (oral administration of 25 mg/kg), 27 µM. The Tmax in data set [2] (setting [3]) is 1.67 h; in data set [2] (setting [4]), 2 h; in data set [2] (setting [5]), 1.67 h; in data set [2] (setting [6]), 2.33 h; in data set [2] (other: oral and sc, all groups (oral and sc)), about 2 h. For the same compound, the half-life in data set [2] (PO, nominal dose 5 mg/kg (administered 4.8), read-out: T1/2 (converted)) was 2.87 h; in data set [2] (PO, nominal dose 25 mg/kg (administered 26.3), read-out: T1/2 (converted)), 1.87 h; in data set [2] (SC, nominal dose 1 mg/kg (administered 1.0), read-out: T1/2 (converted)), 24.8 h; in data set [2] (SC, nominal dose 25 mg/kg (administered 27.5), read-out: T1/2 (converted)) it was 76 h; in data set [2] (other: oral and sc, both routes of administration, read-out: half-life T1/2 during the first 12 h (converted)) it was about 2 h. Moreover, the “AUC0-last oral versus sc” value in data set [2] (higher when administered orally) was 2.4 times. Moreover, the “terminal half-life sc versus T1/2 by oral route” value in data set [2] (terminal phase starting 12 h after dosing, longer for sc) is about 40 times. Besides, the dermal microfilariae numbers entry with Onchocerca lupi is given as “no significant decrease in dermal microfilariae numbers”.
